Measured values: PMC11456916, “A screen for cell envelope stress uncovers an inhibitor of prolipoprotein diacylglyceryl transferase, Lgt, in Escherichiacoli” (iScience, 2024)
Converted amounts (≈) assume the structure as drawn. Like-named read-outs stand apart in the source and are kept apart here.

Legend:
[1] = system: E. coli ΔtolC-pore harboring CRISPRi plasmids targeting lgt; assay: CRISPRi lgt knockdown MIC (low-copy enhancement); assay type: cell-based; settings: two gRNAs targeting lgt, 100 ng/mL aTc
Source text: We next turned to genetic approaches to confirm the mechanism of action of MAC-0452936. […] To that end, we screened the E. coli CRISPRi collection in the ΔtolC-pore genetic background with a sub-inhibitory concentration of MAC-0452936 and measured the fitness of all 356 CRISPRi mutants (Figure 4C and Data S4). […] Depletion of Lgt by CRISPRi provided supporting evidence that MAC-0452936 targeted Lgt in E. coli; however, we sought to confirm this observation using a parallel genetic approach. We hypothesized that MAC-0452936 potency would also be affected by high-copy expression of lgt. To that end, we introduced either an arabinose inducible copy of lgt supplied on the pCHAP9231 plasmid[48] or the pBAD19s plasmid as a control into E. coli ΔtolC-pore and tested the potency of MAC-0452936 (Figure 4E). Induction of lgt expression with arabinose suppressed the activity of MAC-0452936 by about 8-fold. […] To test this hypothesis, we constructed E. coli ΔlgtΔtolC-pore with pCHAP9231[48] so that lgt expression was driven solely by arabinose from the plasmid. […] To test this observation with MAC-0452936, we introduced an lpp deletion into our screening strain E. coli ΔtolC-pore and assessed the activity of our Lgt inhibitor in this mutant background. […]

[2] = target: T1, prolipoprotein diacylglyceryl transferase, Lgt (Escherichia coli, UniProt P60955); assay: In vitro Lgt biochemical assay (phosphatidylglycerol and Pal-IAAC peptide substrates); design: species or system E. coli
T1 construct: Expression, purification, and in vitro Lgt biochemical assay were conducted as described by Diao et al; made in house
Source text: With both genetic and phenotypic evidence supporting MAC-0452936 inhibiting Lgt in E. coli, we next investigated whether MAC-0452936 could inhibit Lgt activity in vitro. Recently, a biochemical assay for Lgt activity was developed using phosphatidylglycerol and Pal-IAAC peptide as substrates.[12] […] As similar results were obtained using two different Lgt enzyme preparations, the inhibition observed by MAC-0452936 was not dependent on the preparation of the lipid matrix. Together, we present genetic, phenotypic, and biochemical evidence that MAC-0452936 inhibits the growth of E. coli through inhibition of Lgt. MAC-0452936 represents a previously undiscovered small molecule inhibitor of bacterial Lgt, and the oxime ester represents a promising chemical scaffold for antibiotic discovery.
Expression, purification, and in vitro Lgt biochemical assay were conducted as described by Diao et al.[12]

E. coli ΔtolC-pore = assay: MIC assay, E. coli ΔtolC-pore; assay type: cell-based; settings: LB, 18 h
Description: (§1) For MIC assays, cultures of bacteria were grown in LB broth. Overnight cultures were diluted (1:100) into fresh LB media and grown to the mid-log phase of growth (OD600 ∼0.5). Subcultures were then normalized to an OD600 of 0.1, and diluted (1:5000) into assay media. Assay plates were then incubated for 18 h at 37°C, then OD600 was measured using a Biotek Neo plate reader.

E. coli BW25113 = assay: MIC assay, wild-type E. coli with or without SPR741; assay type: cell-based; settings: for reduction in potency relative to MAC-0452936 (1): MIC against E. coli with SPR741
Description: We next sought to determine whether we could achieve growth inhibition of wild-type E. coli using MAC-0452936 and an antibiotic adjuvant. […] To that end, we determined the MIC of MAC-0452936 against wild-type E. coli in the presence and absence of a sub-MIC concentration of SPR741 (Figure S8B). […] We leveraged this combination to characterize the spectrum of activity of MAC-0452936 against a panel of Gram-negative pathogens (Table 2). In the presence of 8 μg/mL SPR741, we observed MAC-0452936 activity against the clinical E. coli isolates C0244 and CFT073 at 2 μg/mL as well as against Salmonella Typhimurium SL1344 at 4 μg/mL.
as §1

[3] = Lgt purified using DDM lipid matrix, read-out: in vitro Lgt inhibition DDM-Lgt IC50
[4] = Lgt purified using amphipol lipid matrix, read-out: in vitro Lgt inhibition Amph-Lgt IC50

T1 sequence (P60955 whole entry): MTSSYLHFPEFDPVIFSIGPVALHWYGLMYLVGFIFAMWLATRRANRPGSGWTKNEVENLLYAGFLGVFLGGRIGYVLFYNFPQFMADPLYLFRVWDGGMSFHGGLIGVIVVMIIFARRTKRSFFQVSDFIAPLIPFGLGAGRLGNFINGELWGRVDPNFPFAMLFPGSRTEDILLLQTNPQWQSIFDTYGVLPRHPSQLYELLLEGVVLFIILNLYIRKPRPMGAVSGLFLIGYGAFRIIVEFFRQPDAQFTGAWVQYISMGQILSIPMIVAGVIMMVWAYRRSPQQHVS

SMILES	sensitization upon depletion of Lgt with CRISPRi constructs [1]	IC50 [2, 3]	IC50 [2, 4]	MIC, E. coli ΔtolC-pore (E. coli ΔtolC-pore)	MIC, E. coli BW25113 (WT) + 8 μg/mL SPR741 (E. coli BW25113)	reduction in potency relative to MAC-0452936 (1) (E. coli BW25113)	activity against E. coli with SPR741 (E. coli BW25113; in words)
CO[C@H]1/C=C/O[C@@]2(C)Oc3c(C)c(O)c4c(O)c(c(/C=N/N5CCN(C)CC5)c(O)c4c3C2=O)NC(=O)/C(C)=C\C=C\[C@H](C)[C@H](O)[C@@H](C)[C@@H](O)[C@@H](C)[C@H](OC(C)=O)[C@@H]1C [Rifampicin]	not to either of the negative control antibiotics						
COc1ccc(C(=O)O/N=C(\c2cccs2)C(C)(C)C)c(F)c1 [compound 2, (Z)-2-Pivaloylthiophene O-(2-fluoro-4-methoxybenzoyl) oxime]		0.77 µM	0.32 µM	0.5 µg/mL (≈ 1.49 µM)			
CC(C)(C)/C(=N/OC(=O)c1cccnc1)c1cccs1 [compound 3, (Z)-2-Pivaloylthiophene O-(pyridine-3-oyl) oxime]		3.54 µM	2.72 µM	1 µg/mL (≈ 3.47 µM)			
CC(C)(C)/C(=N/OC(=O)c1cncs1)c1cccs1 [compound 4, (Z)-2-Pivaloylthiophene O-(thiazol-5-ylcarbonyl) oxime]		7.68 µM	4.92 µM	2 µg/mL (≈ 6.79 µM)	2 µg/mL		
Cn1cncc1C(=O)O/N=C(\c1cccs1)C(C)(C)C [compound 5, (Z)-2-Pivaloylthiophene O-(1-methyl-1H-imidazol-5-oyl) oxime]		7.78 µM	5.91 µM	4 µg/mL (≈ 13.7 µM)	4 µg/mL		
COc1ccc(C(=O)O/N=C(\c2cccs2)C(C)(C)C)cc1N [compound 6, (Z)-2-Pivaloylthiophene O-(3-amino-4-methoxybenzoyl) oxime]		57.3 µM	95.5 µM	32 µg/mL (≈ 96.3 µM)	8 µg/mL		
COc1cc(OC)cc(C(=O)O/N=C(\c2cccs2)C(C)(C)C)c1 [compound 7, (Z)-2-Pivaloylthiophene O-(3,5-dimethoxybenzoyl) oxime]		58.7 µM	175 µM	> 32 µg/mL	4 µg/mL		
COc1ccc(CC(=O)O/N=C(\c2cccs2)C(C)(C)C)cc1 [compound 16, (Z)-2-Pivaloylthiophene O-(2-(4-methoxyphenyl)acetyl) oxime]					4 µg/mL	8 fold	
CC(C)(C)C(=NOS(N)(=O)=O)c1cccs1 [compound 17, 2-Pivaloylthiophene O-(sulfamoyl) oxime]							inactive
COc1ccc(C(=O)O/N=C(\c2cncs2)C(C)(C)C)cc1 [compound 20, (Z)-5-Pivaloylthiazole O-(4-methoxybenzoyl) oxime]						≥ 32 fold	
COc1ccc(C(=O)O/N=C(\c2cccnc2)C(C)(C)C)cc1 [compound 22, (Z)-3-Pivaloylpyridine O-(4-methoxybenzoyl) oxime]						≥ 32 fold	
